The values below come from patent US20220133669A1, “PHARMACEUTICAL COMPOSITIONS COMPRISING 15-HETRE AND METHODS OF USE THEREOF” (DS Biopharma Limited, priority 2020, published 2022).

A short description of data set [1]: Tissue distribution following oral administration of 15-HETrE. The note with it: 500 mg/kg p.o. once daily for 7 days; tissues taken 24 hours after final dose. Type of data set: in vivo, rats. Here is the method: The objective of this study was to examine distribution of orally administered 15-HETrE. Male CRL:CD rats were obtained from Charles River Laboratories. Upon receipt, animals were allowed to acclimatize for 5 days prior to start of testing, housed under a 12 h light/dark cycle, and provided a pellet diet (RM-1) and water ad libitum. Animals were dosed with 15-HETrE or vehicle (0.5% HPMC in ASTM Type 1 water) p.o. once daily for 7 days. Animals were monitored at 0.25, 0.5, and 1 hour post dose. During the treatment period, individual body weight was measured daily as well as clinical signs of behavior and survival.
24 hours after the final p.o. dose, each animal was killed by anaesthetic overdose with an intraperitoneal injection of pentobarbitone. A blood sample was collected from the descending vena cava. Lungs, heart, liver, kidneys, spleen, colon, and an area of shaved skin were harvested from each animal, rinsed in PBS, dabbed dry, weighed, and snap-frozen by immersion in liquid nitrogen. All tissue samples were stored frozen at −80° C.

Data set [2] concerns human islet microtissue. Put plainly: Cytotoxicity pretest: ATP content (CellTiter-Glo cell viability) in islet microtissues. The format is cell-based. The note with it: after 7 days of treatment. The method, then:
(§1) From Days 0-7, a human islet microtissue was established. On Day 7, 15-HETrE treatment commenced. From Days 9-12, the culture media was renewed and the compound (15-HETrE) was re-dosed. On Day 14, an assessment on islet cell viability was performed—tissues were lysed to measure ATP content using Promega CellTiter-Glo luminescent cell viability assay. On Day 14, an assessment on islet cell function was also performed—conditioned media from the last 48 hours of the experiment was collected to test chronic insulin secretion. And lastly, on Day 14, insulin was quantified—following dilutions in Krebs-Ringer HEPES buffer, chronic insulin secretion was quantified using STELLUX Chemi Human Insulin ELISA assay.

Data set [3] relates to human islet microtissue. Put plainly: Cytotoxicity pretest: chronic insulin secretion (Human Insulin ELISA) of islet microtissues. To be noted: 300 μM; after 7 days of treatment. Type of data set: cell-based. The method, then:
as §1
(In general: In an ELISA, binding on a coated surface is turned into a signal by an enzyme label.)

Data set [4] deals with human islet microtissue. Kind of data set: 15-HETrE efficacy: human islet microtissue function under glucotoxic conditions. The format is cell-based. The method, then: (§2) The aim of the following study was to determine the effects of 15(S)-HETrE activity on diabetes. This aim was accomplished by (1) identifying a cytotoxic threshold of 15(S)-HETrE in islet microtissues and (2) testing the effects of 15(S)-HETrE on human islet microtissue function under conditions of glucotoxicity and cytokine stress.
(§3) From Days 0-13, an islet microtissue model was established and glucotoxicity pre-test performed. Day 14 marked the start of glucotoxicity assay and 12.5 μM, 25 μM and 50 μM 15(S)-HETrE treatment. From Days 16-19, the culture media was renewed, and the compound (15-HETrE) was re-dosed. Day 12 marked the start of the cytokine stress assay for the 12.5 μM, 25 μM and 50 μM 15(S)-HETrE treatment. On Day, 12 an intermediate assessment of the compound effects was also performed (e.g., Day 7 incubation in glucotoxic conditions). On Day 12, a renewal of the culture media and compound treatment was performed. On Days 23 and 26, a renewal of the culture media and compound treatment was also performed. Lastly, on Day 28, an assessment of the compound effects under glucotoxicity/cytokine stress at the end of 14- and 7-day incubation was performed.

Data set [5] concerns human islet microtissue. Kind of data set: 15-HETrE efficacy: human islet microtissue under cytokine stress. The note with it: 50 μM. The format is cell-based. The method, then: as §2, §3

For `CCCCCC(O)/C=C/C=C\C/C=C\CCCCCCC(=O)O` (stereo not drawn) [15-HETrE, 15-hydroxy-eicosa-8(Z),11(Z),13(E)-trienoic acid], the “tissue distribution of 15-HETrE (heart, kidney, liver, spleen, lung, plasma, skin, colon) vs control animals” value in data set [1] is listed as “targeted all organs tested, including the skin”.

Turning to `CCCCC[C@H](O)/C=C/C=C\C/C=C\CCCCCCC(=O)O` [15(S)-HETrE], the ATP content entry was “significant increase” in data set [2] (11.1 μM), “significant decrease” in data set [2] (300 μM) and “significant decrease” in data set [5]. The values for the chronic insulin secretion entry in data set [3], in data set [4] (day 7) and in data set [4] (day 14) were “significant decrease”, “reduced” and “reduced”, respectively. For the same molecule, the “fold stimulation of insulin secretion” value in data set [4] (25 μM, day 14) is recorded as “improved”. Further, in data set [4] (50 μM), the ATP levels entry is “significantly decreased”. Further, the stimulated insulin secretion entry in data set [4] (day 7, 50 μM) is “significant decrease”. In addition, the basal insulin secretion entry in data set [4] (day 7, 12.5, 25 and 50 μM) is “dose-dependent decrease”; in data set [4] (day 14, 12.5, 25 and 50 μM), “dose-dependent decrease”.
